Data on 46 compounds can be found in patent US20250129031A1, “1,2,3-TRIAZOLE CARBONYL SULFONYLAMIDE COMPOUNDS AND USE THEREOF” (PI INDUSTRIES LTD., priority 2022, published 2025).

The subject of the assay is Meloidogyne incognita. Briefly: Meloidogyne incognita test: gall rating on cucumber plants in pots after soil application. The settings on record: 1000 ppm applied to soil inoculated with 5000 eggs & J2s; cucumber seedlings; rated 30 days after application; 0-10 scale (Zeck 1971); untreated check up to 8. Further details: key: 0: no galls; 1: very few small galls; 2: numerous small galls; 3: numerous small galls of which some are grown together; 4: numerous small and some big galls; 25% of roots severely galled; 6: 50% of roots severely galled; 75% of roots severely galled; 8: no healthy roots but plant is still green; 9: roots rotting and plant dying; 10: plant and roots dead. It is filed as in vivo. How it is done:
Meloidogyne incognita Test:
The trial pots were filled with soil containing a mixture of sand:soil:cocopeat in a ratio of 1:1:1. To the soil of each pot 5 mL of a nematode suspension (Meloidogyne incognita, mix of 5000 eggs & J2s) was added. One hour later the respective test compound at the stated concentration was applied to each pot. 10 days old cucumber seedlings were transplanted into the pots one day after the application. The cucumber plants were allowed to grow at a temperature of 27° C. under greenhouse conditions. The evaluation of the gall rating was recorded 30 days after the application. The plants were carefully uprooted and the roots were thoroughly washed. The gall rating was done on a 0-10 scale as described by Zeck (1971) and shown below: • 0=no galls • 1=very few small galls • 2=numerous small galls • 3=numerous small galls of which some are grown together • 4=numerous small and some big galls • 5=25% of roots severely galled • 6=50% of roots severely galled • 7=75% of roots severely galled • 8=no healthy roots but plant is still green • 9=roots rotting and plant dying • 10=plant and roots dead
Regarding `O=C(NS(=O)(=O)c1cc(Cl)ccc1Cl)c1cn(-c2cc(Cl)cc(Cl)c2)nn1` [Compound 2, 1-(3,5-dichlorophenyl)-N-((2,5-dichlorophenyl)sulfonyl)-1H-1,2,3-triazole-4-carboxamide], the gall rating scale is listed as 4.
In the case of `Cc1c(C(=O)NS(=O)(=O)c2ccccc2Cl)nnn1-c1cc(Cl)cc(Cl)c1` [Compound 7, N-((2-chlorophenyl)sulfonyl)-1-(3,5-dichlorophenyl)-5-methyl-1H-1,2,3-triazole-4-carboxamide], the gall rating scale stood at 4.
In turn, `Cc1c(C(=O)NS(=O)(=O)c2cc(Cl)ccc2Cl)nnn1-c1cc(Cl)cc(Cl)c1` [Compound 8, 1-(3,5-dichlorophenyl)-N-((2,5-dichlorophenyl)sulfonyl)-5-methyl-1H-1,2,3-triazole-4-carboxamide] returned a gall rating scale of 4.
On to `Cc1c(C(=O)NS(=O)(=O)c2ccccc2OC(F)(F)F)nnn1-c1cc(Cl)cc(Cl)c1` [Compound 17], for which the gall rating scale was 4.
`Cc1c(C(=O)NS(=O)(=O)c2ccc(F)cc2)nnn1-c1cc(Cl)cc(Cl)c1` [Compound 25] displayed a gall rating scale of 4.
The compound `Cc1c(C(=O)NS(=O)(=O)c2cc(C(F)(F)F)ccc2Cl)nnn1-c1ccc(Cl)cc1Cl` [Compound 33] gave a gall rating scale of 4.
Regarding `O=C(NS(=O)(=O)c1ccccc1)c1nnn(-c2cc(Cl)cc(Cl)c2)c1C(F)(F)F` [Compound 35, 1-(3,5-dichlorophenyl)-N-(phenylsulfonyl)-5-(trifluoromethyl)-1H-1,2,3-triazole-4-carboxamide], the gall rating scale is 4.
As for `O=C(NS(=O)(=O)c1c(F)cccc1F)c1nnn(-c2ccc(Cl)cc2C(F)(F)F)c1C(F)(F)F` [Compound 52], the figure is 4.
`COc1ccc(Cl)c(S(=O)(=O)NC(=O)c2nnn(-c3ccc(Cl)cc3Cl)c2C)c1` [Compound 56] had a gall rating scale of 4.
As for `COc1ccc(Cl)c(S(=O)(=O)NC(=O)c2nnn(-c3ccc(Cl)cc3C(F)(F)F)c2C(F)(F)F)c1` [Compound 57], the gall rating scale is 4.
Regarding `COc1ccc(Cl)c(S(=O)(=O)NC(=O)c2nnn(-c3ccc(Cl)cc3C(F)(F)F)c2C)c1` [Compound 61], the gall rating scale is 4.
In turn, `O=C(NS(=O)(=O)c1cc(C(F)(F)F)ccc1Cl)c1nnn(-c2ccc(C(F)(F)F)cc2Cl)c1C(F)(F)F` [Compound 76] registered a gall rating scale of 4.
On to `Cc1c(C(=O)NS(=O)(=O)c2ccccc2F)nnn1-c1cc(Cl)cc(C(F)(F)F)c1` [Compound 96], for which the gall rating scale is given as 4.
`Cc1c(C(=O)NS(=O)(=O)c2c(F)cc(F)cc2F)nnn1-c1cc(Cl)cc(C(F)(F)F)c1` [Compound 97] came in with a gall rating scale of 4.
`COc1ccc(Cl)c(S(=O)(=O)NC(=O)c2nnn(-c3cc(C(F)(F)F)cc(C(F)(F)F)c3)c2C)c1` [Compound 108] came in with a gall rating scale of 4.
`Cc1c(C(=O)NS(=O)(=O)c2ccccc2C(F)(F)F)nnn1-c1ccc(OC(F)(F)F)cc1Cl` [Compound 132] showed a gall rating scale of 4.
As for `COc1ccc(Cl)c(S(=O)(=O)NC(=O)c2nnn(-c3ccc(OC(F)(F)F)cc3Cl)c2C)c1` [Compound 133], the figure is 4.
With `Cc1c(C(=O)NS(=O)(=O)c2cc(Cl)ccc2Cl)nnn1-c1ccc(OC(F)(F)F)cc1Cl` [Compound 134, 1-(2-chloro-4-(trifluoromethoxy)phenyl)-N-((2,5-dichlorophenyl)sulfonyl)-5-methyl-1H-1,2,3-triazole-4-carboxamide], the gall rating scale is recorded as 4.
In the case of `Cc1c(C(=O)NS(=O)(=O)c2cc(C(F)(F)F)ccc2Cl)nnn1-c1ccc(OC(F)(F)F)cc1Cl` [Compound 135], the gall rating scale was found to be 4.
As for `Cc1c(C(=O)NS(=O)(=O)c2cc(F)cc(F)c2)nnn1-c1ccc(OC(F)(F)F)cc1Cl` [Compound 140], the gall rating scale came out at 4.
As for `Cc1c(C(=O)NS(=O)(=O)c2ccccc2F)nnn1-c1ccc(OC(F)(F)F)cc1Cl` [Compound 143], the figure is 4; as for `Cc1c(C(=O)NS(=O)(=O)c2cc(Cl)ccc2F)nnn1-c1ccc(OC(F)(F)F)cc1Cl` [Compound 168, N-((5-chloro-2-fluorophenyl)sulfonyl)-1-(2-chloro-4-(trifluoromethoxy)phenyl)-5-methyl-1H-1,2,3-triazole-4-carboxamide], 4; as for `O=C(NS(=O)(=O)c1cc(C(F)(F)F)ccc1Cl)c1nnn(-c2ccc(OC(F)(F)F)cc2Cl)c1C(F)(F)F` [Compound 171, 1-(2-chloro-4-(trifluoromethoxy)phenyl)-N-((2-chloro-5-(trifluoromethyl)phenyl)sulfonyl)-5-(trifluoromethyl)-1H-1,2,3-triazole-4-carboxamide], 4.
On to `O=C(NS(=O)(=O)c1ccccc1C(F)(F)F)c1nnn(-c2ccc(Cl)cc2Cl)c1C(F)(F)F` [Compound 209], for which the gall rating scale was determined as 4.
Regarding `O=C(NS(=O)(=O)c1cc(C(F)(F)F)ccc1Cl)c1nnn(-c2ccc(Cl)cc2Cl)c1C(F)(F)F` [Compound 210], the gall rating scale was 4.
As for `Cc1ccc(C)c(S(=O)(=O)NC(=O)c2nnn(-c3ccc(OC(F)(F)F)cc3Cl)c2C)c1` [Compound 217], the figure is 4; as for `O=C(NS(=O)(=O)c1ccc(F)cc1F)c1nnn(-c2ccc(Cl)cc2Cl)c1C(F)(F)F` [Compound 218], 4.
As for `O=C(NS(=O)(=O)c1cc(C(F)(F)F)ccc1Cl)c1nnn(-c2ccc(OC(F)(F)F)cc2Cl)c1C1CC1` [Compound 227, 1-(2-chloro-4-(trifluoromethoxy)phenyl)-N-((2-chloro-5-(trifluoromethyl)phenyl)sulfonyl)-5-cyclopropyl-1H-1,2,3-triazole-4-carboxamide], the gall rating scale came to 4.
As to `O=C(NS(=O)(=O)c1ccccc1C(F)(F)F)c1nnn(-c2ccc(OC(F)(F)F)cc2Cl)c1C1CC1` [Compound 228], the gall rating scale is listed as 4.
As for `O=C(NS(=O)(=O)c1cc(Cl)ccc1Cl)c1nnn(-c2ccc(OC(F)(F)F)cc2Cl)c1C1CC1` [Compound 229, 1-(2-chloro-4-(trifluoromethoxy)phenyl)-5-cyclopropyl-N-((2,5-dichlorophenyl)sulfonyl)-1H-1,2,3-triazole-4-carboxamide], the gall rating scale was determined as 4.
As for `COc1ccc(Cl)c(S(=O)(=O)NC(=O)c2nnn(-c3ccc(OC(F)(F)F)cc3Cl)c2C2CC2)c1` [Compound 230, 1-(2-chloro-4-(trifluoromethoxy)phenyl)-N-((2-chloro-5-methoxyphenyl)sulfonyl)-5-cyclopropyl-1H-1,2,3-triazole-4-carboxamide], the figure is 4; as for `CCc1c(C(=O)NS(=O)(=O)c2cc(C(F)(F)F)ccc2Cl)nnn1-c1ccc(Cl)cc1Cl` [Compound 231], 4.
In turn, `Cc1c(C(=O)NS(=O)(=O)c2cc(C(F)(F)F)ccc2F)nnn1-c1ccc(Cl)cc1Cl` [Compound 240] had a gall rating scale of 4.
The compound `Cc1c(C(=O)NS(=O)(=O)c2ccccc2C(F)(F)F)nnn1-c1ccc(Cl)cc1Cl` [Compound 241] gave a gall rating scale of 4.
The value for `COc1ccc(Cl)c(S(=O)(=O)NC(=O)c2nnn(-c3ccc(F)cc3Cl)c2C)c1` [Compound 242] was 4; that for `Cc1c(C(=O)NS(=O)(=O)c2ccccc2C(F)(F)F)nnn1-c1ccc(F)cc1Cl` [Compound 245] was 4; that for `Cc1c(C(=O)NS(=O)(=O)c2ccccc2F)nnn1-c1ccc(F)cc1Cl` [Compound 246] was 4.
Consider `Cc1c(C(=O)NS(=O)(=O)c2cc(Cl)c(F)cc2F)nnn1-c1ccc(F)cc1Cl` [Compound 250], for which the gall rating scale came to 4.
As for `Cc1c(C(=O)NS(=O)(=O)c2cc(C(F)(F)F)ccc2Cl)nnn1-c1ccc(F)cc1Cl` [Compound 252, 1-(2-chloro-4-fluorophenyl)-N-((2-chloro-5-(trifluoromethyl)phenyl)sulfonyl)-5-methyl-1H-1,2,3-triazole-4-carboxamide], the figure is 4; as for `Cc1c(C(=O)NS(=O)(=O)c2cc(C(F)(F)F)ccc2Cl)nnn1-c1cc(Cl)cc(Cl)c1` [Compound 253], 4.
The value for `Cc1c(C(=O)NS(=O)(=O)c2ccccc2C(F)(F)F)nnn1-c1cc(Cl)cc(Cl)c1` [Compound 254] was 4; that for `Cc1c(C(=O)NS(=O)(=O)c2ccccc2C(F)(F)F)nnn1-c1cc(Cl)ccc1Cl` [Compound 259, 1-(2,5-dichlorophenyl)-5-methyl-N-((2-(trifluoromethyl)phenyl)sulfonyl)-1H-1,2,3-triazole-4-carboxamide] was 4.
Consider `COc1ccc(Cl)c(S(=O)(=O)NC(=O)c2nnn(-c3ccc(C#N)cc3Cl)c2C)c1` [Compound 260], for which the gall rating scale is given as 4.
`Cc1c(C(=O)NS(=O)(=O)c2cc(C(F)(F)F)ccc2Br)nnn1-c1ccc(Cl)cc1Cl` [Compound 261] gave a gall rating scale of 4.
As for `Cc1c(C(=O)NS(=O)(=O)c2cc(F)ccc2F)nnn1-c1ccc(C#N)cc1Cl` [Compound 269], the figure is 4; as for `Cc1c(C(=O)NS(=O)(=O)c2ccccc2C(F)(F)F)nnn1-c1ccc(C#N)cc1Cl` [Compound 271], 4.
